Data from ChEMBL document CHEMBL4507273 (2021).

Tests used:
Mu-type opioid receptor = Mu-type opioid receptor (Homo sapiens, UniProt P35372); assay: GPCRScan assay: inhibition of MOR; parameters: radioligand conc. used [nm] 1.0 – 2.0, parental cells stable HEK
Histamine H4 receptor = Histamine H4 receptor (Homo sapiens, UniProt Q9H3N8); assay: GPCRScan assay: inhibition of H4; parameters: radioligand conc. used [nm] 1.0 – 5.0, parental cells HEK T
Histamine H1 receptor = Histamine H1 receptor (Homo sapiens, UniProt P35367); assay: GPCRScan assay: inhibition of H1; parameters: radioligand conc. used [nm] 0.6 – 2.0, parental cells stable HEK
[1] = biological target: Adenosine Transporter (Cavia porcellus) (UniProt H0V4R7+H0UUG1+H0V3Z5); assay: Inhibition of Transporter, Adenosine at compound concentration of 10.0 uM in the Eurofins-Panlabs radioligand binding assay (Eurofins_assay_202000); format: protein assay; parameters: ligand concentration 0.5 nM, non-specific ligand with concentration 5 uM Nitrobenzylthioinosine, incubation time 30 min, incubation temperature 25 C; conditions: Compound concentration 10.0 uM
D(2) dopamine receptor = D(2) dopamine receptor (Homo sapiens, UniProt P14416); conditions: Compound concentration 10.0 uM
[2] = biological target: T1, Protein kinase C epsilon type (Homo sapiens) (UniProt Q02156); assay: PKCepsilon(h) Eurofins Kinase panel; conditions: Compound concentration 1.0 uM
T1 sequence (whole entry): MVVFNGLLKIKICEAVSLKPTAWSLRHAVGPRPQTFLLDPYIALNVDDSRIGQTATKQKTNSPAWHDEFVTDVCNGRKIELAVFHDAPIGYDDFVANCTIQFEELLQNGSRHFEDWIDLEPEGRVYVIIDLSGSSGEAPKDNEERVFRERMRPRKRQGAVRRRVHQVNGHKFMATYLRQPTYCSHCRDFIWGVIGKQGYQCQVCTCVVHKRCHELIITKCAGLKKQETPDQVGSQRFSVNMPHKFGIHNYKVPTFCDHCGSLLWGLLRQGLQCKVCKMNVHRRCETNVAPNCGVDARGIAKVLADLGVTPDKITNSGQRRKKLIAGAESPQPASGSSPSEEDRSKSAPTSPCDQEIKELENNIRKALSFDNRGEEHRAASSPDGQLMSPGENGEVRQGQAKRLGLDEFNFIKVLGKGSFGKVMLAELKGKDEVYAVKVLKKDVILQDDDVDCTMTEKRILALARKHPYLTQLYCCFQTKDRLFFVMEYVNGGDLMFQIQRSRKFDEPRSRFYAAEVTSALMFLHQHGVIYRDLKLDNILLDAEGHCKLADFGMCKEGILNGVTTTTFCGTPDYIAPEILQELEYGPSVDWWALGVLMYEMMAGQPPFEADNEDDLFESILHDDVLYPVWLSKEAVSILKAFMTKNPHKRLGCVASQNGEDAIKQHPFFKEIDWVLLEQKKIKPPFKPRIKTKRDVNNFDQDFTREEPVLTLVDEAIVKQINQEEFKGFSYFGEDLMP

Rattus norvegicus = organism: Rattus norvegicus; conditions: Compound concentration 10.0 uM
[3] = biological target: T2, Alpha-1A adrenergic receptor (Homo sapiens) (UniProt P35348); conditions: Rattus norvegicus; Compound concentration 10.0 uM
T2 sequence (whole entry): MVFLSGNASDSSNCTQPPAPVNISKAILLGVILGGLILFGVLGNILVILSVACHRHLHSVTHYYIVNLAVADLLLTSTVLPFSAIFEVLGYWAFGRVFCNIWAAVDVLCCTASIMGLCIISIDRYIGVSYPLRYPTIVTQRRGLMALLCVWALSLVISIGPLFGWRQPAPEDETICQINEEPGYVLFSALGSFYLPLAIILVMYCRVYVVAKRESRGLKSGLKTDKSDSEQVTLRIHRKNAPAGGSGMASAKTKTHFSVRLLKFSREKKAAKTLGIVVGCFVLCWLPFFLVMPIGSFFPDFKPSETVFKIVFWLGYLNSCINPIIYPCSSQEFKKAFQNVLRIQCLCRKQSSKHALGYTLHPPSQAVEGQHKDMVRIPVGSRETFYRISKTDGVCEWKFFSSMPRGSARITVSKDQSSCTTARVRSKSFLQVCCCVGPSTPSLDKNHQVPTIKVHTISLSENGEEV

[4] = biological target: Vascular endothelial growth factor receptor 1 (Homo sapiens) (UniProt P17948); assay: Flt1(h) Eurofins Kinase panel; conditions: Compound concentration 1.0 uM
D(4) dopamine receptor = D(4) dopamine receptor (Homo sapiens, UniProt P21917); assay: GPCRScan assay: inhibition of D4; parameters: radioligand conc. used [nm] 0.6 – 1.7, parental cells Stable HEK
[5] = biological target: Serine/threonine-protein kinase Chk2 (Homo sapiens) (UniProt O96017); assay: CHK2(h) Eurofins Kinase panel; conditions: Compound concentration 1.0 uM
[6] = biological target: NT-3 growth factor receptor (Homo sapiens) (UniProt Q16288); assay: TrkC(h) Eurofins Kinase panel; conditions: Compound concentration 1.0 uM
[7] = biological target: Muscarinic acetylcholine receptor M3 (Homo sapiens, UniProt P20309); assay: GPCRScan assay: inhibition of M3; parameters: radioligand conc. used [nm] 0.3 – 1.0, parental cells stable CHO
[8] = biological target: Vascular endothelial growth factor receptor 3 (Homo sapiens) (UniProt P35916); assay: Flt4(h) Eurofins Kinase panel; conditions: Compound concentration 1.0 uM
ATR/ATRIP (Homo sapiens) = ATR/ATRIP (Homo sapiens) (UniProt Q13535+Q8WXE1); assay: ATR/ATRIP(h) Eurofins Kinase panel; format: protein-complex assay; conditions: Compound concentration 1.0 uM
[9] = biological target: T3, Alpha-2C adrenergic receptor (Homo sapiens) (UniProt P18825); conditions: Compound concentration 10.0 uM
T3 sequence (whole entry): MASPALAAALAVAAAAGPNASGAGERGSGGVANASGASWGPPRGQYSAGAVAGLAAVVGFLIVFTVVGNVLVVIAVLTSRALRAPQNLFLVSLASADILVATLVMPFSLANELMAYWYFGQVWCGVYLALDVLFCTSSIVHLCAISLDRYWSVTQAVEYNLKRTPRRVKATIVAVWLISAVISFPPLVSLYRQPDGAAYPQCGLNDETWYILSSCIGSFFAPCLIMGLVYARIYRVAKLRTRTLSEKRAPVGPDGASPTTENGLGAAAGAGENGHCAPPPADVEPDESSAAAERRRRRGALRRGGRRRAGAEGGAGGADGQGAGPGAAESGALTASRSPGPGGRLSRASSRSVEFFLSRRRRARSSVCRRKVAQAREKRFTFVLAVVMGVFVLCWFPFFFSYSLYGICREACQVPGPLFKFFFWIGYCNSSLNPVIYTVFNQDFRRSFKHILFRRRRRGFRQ

[10] = biological target: T4, 5-hydroxytryptamine receptor 1A (Homo sapiens) (UniProt P08908); conditions: Compound concentration 10.0 uM
T4 sequence (whole entry): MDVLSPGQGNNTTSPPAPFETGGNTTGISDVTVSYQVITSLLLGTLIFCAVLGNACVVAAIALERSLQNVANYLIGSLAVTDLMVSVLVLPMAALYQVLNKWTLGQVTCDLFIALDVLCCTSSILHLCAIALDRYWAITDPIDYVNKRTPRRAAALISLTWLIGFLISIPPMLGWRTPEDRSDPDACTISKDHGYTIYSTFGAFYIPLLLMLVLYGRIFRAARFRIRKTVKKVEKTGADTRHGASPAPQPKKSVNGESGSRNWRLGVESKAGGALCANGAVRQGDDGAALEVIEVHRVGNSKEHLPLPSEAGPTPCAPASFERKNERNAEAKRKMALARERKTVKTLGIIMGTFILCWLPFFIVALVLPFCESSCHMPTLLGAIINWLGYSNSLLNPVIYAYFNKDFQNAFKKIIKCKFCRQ

Chain of Histamine H1 receptor (P35367 whole entry): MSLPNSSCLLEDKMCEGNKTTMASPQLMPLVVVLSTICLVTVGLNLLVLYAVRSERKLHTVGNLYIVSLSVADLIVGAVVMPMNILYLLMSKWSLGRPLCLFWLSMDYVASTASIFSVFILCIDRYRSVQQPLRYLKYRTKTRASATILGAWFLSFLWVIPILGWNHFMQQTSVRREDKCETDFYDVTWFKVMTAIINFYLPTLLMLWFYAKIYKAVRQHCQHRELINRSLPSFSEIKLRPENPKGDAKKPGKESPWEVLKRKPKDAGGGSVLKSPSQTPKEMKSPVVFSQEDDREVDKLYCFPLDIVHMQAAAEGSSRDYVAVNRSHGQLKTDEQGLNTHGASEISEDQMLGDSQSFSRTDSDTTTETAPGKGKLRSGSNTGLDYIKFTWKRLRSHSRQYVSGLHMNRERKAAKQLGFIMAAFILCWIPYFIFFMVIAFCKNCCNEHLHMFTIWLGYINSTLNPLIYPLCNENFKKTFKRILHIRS
Chain of Mu-type opioid receptor (P35372 whole entry): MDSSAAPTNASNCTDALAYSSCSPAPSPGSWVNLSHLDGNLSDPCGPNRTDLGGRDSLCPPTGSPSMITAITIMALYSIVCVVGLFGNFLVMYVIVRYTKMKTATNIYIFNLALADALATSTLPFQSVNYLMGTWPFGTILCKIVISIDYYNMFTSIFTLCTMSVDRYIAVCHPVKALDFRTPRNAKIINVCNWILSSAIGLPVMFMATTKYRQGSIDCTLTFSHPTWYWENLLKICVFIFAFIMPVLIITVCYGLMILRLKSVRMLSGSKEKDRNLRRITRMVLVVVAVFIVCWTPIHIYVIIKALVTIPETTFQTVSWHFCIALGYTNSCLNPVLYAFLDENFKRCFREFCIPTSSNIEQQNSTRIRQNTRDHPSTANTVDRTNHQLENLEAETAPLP
Chain of Muscarinic acetylcholine receptor M3 (P20309 whole entry): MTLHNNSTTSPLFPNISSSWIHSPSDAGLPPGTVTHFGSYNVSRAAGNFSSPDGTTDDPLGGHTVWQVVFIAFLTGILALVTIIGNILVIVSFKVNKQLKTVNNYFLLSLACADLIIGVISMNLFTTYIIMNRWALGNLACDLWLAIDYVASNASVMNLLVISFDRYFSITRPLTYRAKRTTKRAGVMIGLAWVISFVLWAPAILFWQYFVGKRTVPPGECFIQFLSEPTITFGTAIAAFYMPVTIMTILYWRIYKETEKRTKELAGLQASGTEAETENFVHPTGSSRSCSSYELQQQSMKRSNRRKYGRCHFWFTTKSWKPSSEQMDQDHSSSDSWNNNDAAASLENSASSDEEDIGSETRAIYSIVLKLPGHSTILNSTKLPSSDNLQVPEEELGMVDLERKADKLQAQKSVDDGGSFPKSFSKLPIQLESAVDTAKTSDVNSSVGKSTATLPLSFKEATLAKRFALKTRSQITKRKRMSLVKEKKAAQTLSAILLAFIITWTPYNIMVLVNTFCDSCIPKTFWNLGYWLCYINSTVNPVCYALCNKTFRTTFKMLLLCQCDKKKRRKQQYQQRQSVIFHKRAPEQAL
Chain of D(4) dopamine receptor (P21917 whole entry): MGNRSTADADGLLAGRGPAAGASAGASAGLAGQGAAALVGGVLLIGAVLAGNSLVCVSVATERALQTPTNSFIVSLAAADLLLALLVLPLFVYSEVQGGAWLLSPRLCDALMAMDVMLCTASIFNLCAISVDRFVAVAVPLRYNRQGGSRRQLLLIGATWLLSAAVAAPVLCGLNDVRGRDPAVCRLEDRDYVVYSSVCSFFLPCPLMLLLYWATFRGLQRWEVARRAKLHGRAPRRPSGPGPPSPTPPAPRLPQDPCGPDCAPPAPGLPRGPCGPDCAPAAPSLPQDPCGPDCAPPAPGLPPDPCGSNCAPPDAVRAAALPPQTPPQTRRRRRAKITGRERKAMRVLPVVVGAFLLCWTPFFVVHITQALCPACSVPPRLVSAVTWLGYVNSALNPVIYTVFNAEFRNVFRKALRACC
Chain of Vascular endothelial growth factor receptor 3 (Homo sapiens) (P35916 whole entry): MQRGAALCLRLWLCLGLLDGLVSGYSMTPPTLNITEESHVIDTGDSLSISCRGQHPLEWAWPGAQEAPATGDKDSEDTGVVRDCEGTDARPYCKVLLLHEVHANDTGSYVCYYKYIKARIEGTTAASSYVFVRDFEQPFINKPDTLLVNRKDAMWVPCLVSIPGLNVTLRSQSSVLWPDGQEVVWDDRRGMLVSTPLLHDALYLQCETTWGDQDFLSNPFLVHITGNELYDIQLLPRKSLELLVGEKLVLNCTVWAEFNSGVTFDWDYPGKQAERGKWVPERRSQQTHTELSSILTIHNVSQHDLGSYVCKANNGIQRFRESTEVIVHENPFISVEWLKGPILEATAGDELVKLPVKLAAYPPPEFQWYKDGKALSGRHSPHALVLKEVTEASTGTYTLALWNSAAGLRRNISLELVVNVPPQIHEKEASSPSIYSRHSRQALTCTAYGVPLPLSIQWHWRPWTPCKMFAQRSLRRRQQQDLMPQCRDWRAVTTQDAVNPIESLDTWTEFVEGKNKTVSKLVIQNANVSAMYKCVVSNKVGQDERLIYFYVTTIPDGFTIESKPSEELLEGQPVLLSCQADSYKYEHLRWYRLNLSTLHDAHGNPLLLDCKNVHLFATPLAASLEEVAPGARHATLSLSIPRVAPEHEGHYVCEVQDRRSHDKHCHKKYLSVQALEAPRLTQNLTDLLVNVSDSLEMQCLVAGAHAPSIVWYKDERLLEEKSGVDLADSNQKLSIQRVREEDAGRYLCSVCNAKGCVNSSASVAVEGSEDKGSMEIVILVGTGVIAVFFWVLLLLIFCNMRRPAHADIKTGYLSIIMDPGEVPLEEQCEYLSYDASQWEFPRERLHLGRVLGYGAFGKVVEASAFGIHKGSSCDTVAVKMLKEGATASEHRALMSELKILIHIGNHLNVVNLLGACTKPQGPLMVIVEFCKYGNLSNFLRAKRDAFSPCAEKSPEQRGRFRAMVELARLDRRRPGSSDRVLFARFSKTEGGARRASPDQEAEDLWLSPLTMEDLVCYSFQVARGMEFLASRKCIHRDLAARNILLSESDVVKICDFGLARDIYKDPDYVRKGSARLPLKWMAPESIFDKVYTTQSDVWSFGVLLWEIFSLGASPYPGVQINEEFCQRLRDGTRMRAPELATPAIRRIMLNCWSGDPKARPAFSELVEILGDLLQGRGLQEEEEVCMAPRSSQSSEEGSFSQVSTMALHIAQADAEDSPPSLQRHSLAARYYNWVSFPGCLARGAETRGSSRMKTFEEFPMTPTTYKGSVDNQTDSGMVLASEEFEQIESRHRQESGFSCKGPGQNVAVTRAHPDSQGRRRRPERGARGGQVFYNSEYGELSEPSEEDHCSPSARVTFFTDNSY
Chain of D(2) dopamine receptor (P14416 whole entry): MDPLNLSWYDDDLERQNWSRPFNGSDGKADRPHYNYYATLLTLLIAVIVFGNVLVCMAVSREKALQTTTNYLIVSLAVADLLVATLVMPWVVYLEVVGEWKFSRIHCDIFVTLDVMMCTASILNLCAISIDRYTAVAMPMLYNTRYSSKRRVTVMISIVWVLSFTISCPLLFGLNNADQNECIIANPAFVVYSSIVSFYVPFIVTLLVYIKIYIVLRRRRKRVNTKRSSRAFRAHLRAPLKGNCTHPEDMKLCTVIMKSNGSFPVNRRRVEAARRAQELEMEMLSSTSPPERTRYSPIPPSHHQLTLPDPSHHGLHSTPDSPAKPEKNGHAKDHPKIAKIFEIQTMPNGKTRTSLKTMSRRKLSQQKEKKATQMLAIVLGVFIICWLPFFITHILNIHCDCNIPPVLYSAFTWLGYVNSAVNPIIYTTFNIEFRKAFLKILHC
Chain of NT-3 growth factor receptor (Homo sapiens) (Q16288 32-839 limits assumed): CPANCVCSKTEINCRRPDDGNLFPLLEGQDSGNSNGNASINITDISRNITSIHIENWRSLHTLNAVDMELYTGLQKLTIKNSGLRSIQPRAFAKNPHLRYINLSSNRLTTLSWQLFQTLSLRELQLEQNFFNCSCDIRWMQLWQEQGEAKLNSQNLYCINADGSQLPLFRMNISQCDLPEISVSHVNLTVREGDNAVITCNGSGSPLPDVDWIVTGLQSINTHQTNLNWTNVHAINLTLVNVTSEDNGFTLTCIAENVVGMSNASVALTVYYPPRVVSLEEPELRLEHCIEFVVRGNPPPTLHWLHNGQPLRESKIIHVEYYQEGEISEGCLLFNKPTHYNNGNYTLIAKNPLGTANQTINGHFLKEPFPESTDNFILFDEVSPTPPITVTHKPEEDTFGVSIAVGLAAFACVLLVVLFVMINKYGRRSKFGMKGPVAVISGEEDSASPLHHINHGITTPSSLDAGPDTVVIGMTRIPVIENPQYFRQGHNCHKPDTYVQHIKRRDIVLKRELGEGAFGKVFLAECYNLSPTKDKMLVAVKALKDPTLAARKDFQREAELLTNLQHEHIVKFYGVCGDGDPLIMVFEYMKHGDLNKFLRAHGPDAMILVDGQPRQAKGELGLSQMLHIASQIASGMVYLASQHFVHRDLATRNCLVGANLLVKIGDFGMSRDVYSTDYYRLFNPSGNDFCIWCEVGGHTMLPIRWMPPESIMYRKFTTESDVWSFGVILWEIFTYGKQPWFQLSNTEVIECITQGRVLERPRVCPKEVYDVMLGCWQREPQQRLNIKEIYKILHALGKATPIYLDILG
Chain of Histamine H4 receptor (Q9H3N8 whole entry): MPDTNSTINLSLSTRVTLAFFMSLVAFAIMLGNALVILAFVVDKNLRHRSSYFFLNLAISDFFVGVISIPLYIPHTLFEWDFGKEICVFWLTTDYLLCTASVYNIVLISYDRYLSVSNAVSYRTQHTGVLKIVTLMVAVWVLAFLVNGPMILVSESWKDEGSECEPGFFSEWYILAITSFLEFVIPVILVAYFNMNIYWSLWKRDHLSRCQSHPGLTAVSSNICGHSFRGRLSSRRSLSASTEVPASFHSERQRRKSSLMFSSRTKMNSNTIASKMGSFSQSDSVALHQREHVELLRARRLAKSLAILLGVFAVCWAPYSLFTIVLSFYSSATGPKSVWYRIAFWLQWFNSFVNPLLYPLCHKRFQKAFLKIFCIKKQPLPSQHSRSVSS

## CNCc1ccccc1-c1csc([C@H](C)Nc2nc(C)nc3cc(OC)c(OC)cc23)c1 [BAY-294]
Mu-type opioid receptor; read-out: Ki
  Ki: 854 nM
Mu-type opioid receptor; read-out: pKi (converted)
  Ki: 759 nM
Histamine H4 receptor
  Ki: 1890 nM
Histamine H1 receptor; read-out: Ki
  Ki: 1370 nM
Histamine H1 receptor; read-out: pKi (converted)
  Ki: 1350 nM

## CNCc1ccccc1-c1csc([C@@H](C)Nc2nc(C)nc3cc(OC)c(OC)cc23)c1 [BAY-293]
[1]
  inhibition: 62%
D(2) dopamine receptor
  inhibition: 67%
[2]
  % residual kinase activity: 88%
Rattus norvegicus
  inhibition: 71%
[3]
  inhibition: 106%
[4]
  % residual kinase activity: 88%
D(4) dopamine receptor; read-out: Ki
  Ki: 2660 nM
D(4) dopamine receptor; read-out: pKi (converted)
  Ki: 2630 nM
[5]
  % residual kinase activity: 80%
[6]
  % residual kinase activity: 80%
[7]; read-out: Ki
  Ki: 972 nM
[7]; read-out: pKi (converted)
  Ki: 955 nM
[8]
  % residual kinase activity: 82%
ATR/ATRIP (Homo sapiens)
  % residual kinase activity: 88%
[9]
  inhibition: 99%
[10]
  inhibition: 81%
